Experimental data from PubChem BioAssay AID2060905 (Molecular Pharmacology Branch, DTP, NCI, 2025).

Test system: 282377-053-R-J1-PDC complex spheroid viability
Assay: Anticancer human tumor 282377-053-R-J1-PDC patient-derived colon adenocarcinoma cell line growth inhibition [RAS]
Details: for IC50: curve of first compound; for viability, T/C: stronger effect = lower value
In short: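 Tumour cells grown as complex spheroids with HUVEC endothelial cells and mesenchymal stem cells, treated with RAS pathway inhibitor combinations. Each agent spans half-log steps from near clinical Cmax, or 10 microM where Cmax is unknown.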

[1] = second compound 0.000949 µM, first compound 0.000949 µM
[2] = second compound 0.000949 µM, first compound 0.003 µM
[3] = second compound 0.000949 µM, first compound 0.00949 µM
[4] = second compound 0.000949 µM, first compound 0.03 µM
[5] = second compound 0.000949 µM, first compound 0.0949 µM
[6] = second compound 0.000949 µM, first compound 0.3 µM
[7] = second compound 0.003 µM, first compound 0.000949 µM
[8] = second compound 0.003 µM, first compound 0.003 µM
[9] = second compound 0.003 µM, first compound 0.00949 µM
[10] = second compound 0.003 µM, first compound 0.03 µM
[11] = second compound 0.003 µM, first compound 0.0949 µM
[12] = second compound 0.003 µM, first compound 0.3 µM
[13] = second compound 0.00949 µM, first compound 0.000949 µM
[14] = second compound 0.00949 µM, first compound 0.003 µM
[15] = second compound 0.00949 µM, first compound 0.00949 µM
[16] = second compound 0.00949 µM, first compound 0.03 µM
[17] = second compound 0.00949 µM, first compound 0.0949 µM
[18] = second compound 0.00949 µM, first compound 0.3 µM
[19] = second compound 0.03 µM, first compound 0.000949 µM
[20] = second compound 0.03 µM, first compound 0.003 µM
[21] = second compound 0.03 µM, first compound 0.00949 µM
[22] = second compound 0.03 µM, first compound 0.03 µM
[23] = second compound 0.03 µM, first compound 0.0949 µM
[24] = second compound 0.03 µM, first compound 0.3 µM
[25] = second compound 0.0949 µM, first compound 0.000949 µM
[26] = second compound 0.0949 µM, first compound 0.003 µM
[27] = second compound 0.0949 µM, first compound 0.00949 µM
[28] = second compound 0.0949 µM, first compound 0.03 µM
[29] = second compound 0.0949 µM, first compound 0.0949 µM
[30] = second compound 0.0949 µM, first compound 0.3 µM
[31] = second compound 0.3 µM, first compound 0.000949 µM
[32] = second compound 0.3 µM, first compound 0.003 µM
[33] = second compound 0.3 µM, first compound 0.00949 µM
[34] = second compound 0.3 µM, first compound 0.03 µM
[35] = second compound 0.3 µM, first compound 0.0949 µM
[36] = second compound 0.3 µM, first compound 0.3 µM
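Further: spheroids exposed to agents for seven days before readout.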
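Wherever viability, T/C is given: luminescence viability as percent of DMSO vehicle control wells.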

With `CC1(C)CCC(Nc2ncc(C(F)(F)F)c(-c3c[nH]c4c(P(C)(C)=O)c(C#N)ccc34)n2)CN1` (stereo unspecified) + CCn1c(-c2cc(N3CCN(C)CC3)cnc2C(C)OC)c2c3cc(ccc31)-c1csc(n1)CC(NC(=O)C1CC1C)C(=O)N1CCCC(N1)C(=O)OCC(C)(C)C2 as the compound, how does the IC50 (second compound 0.000949 µM) read?
Its IC50 is over 300 nM.

And the IC50 (second compound 0.003 µM)?
Its IC50 is over 300 nM.

What about the IC50 (second compound 0.00949 µM) of the same compound?
Its IC50 is over 300 nM.

What about the IC50 (second compound 0.03 µM) of the same compound?
Its IC50 is over 300 nM.

What about the IC50 (second compound 0.0949 µM) of the same compound?
The IC50 was over 300 nM.

And the IC50 (second compound 0.3 µM)?
The IC50 was over 300 nM.

And the viability, T/C [1]?
Its viability, T/C is 104%.

What about the viability, T/C [2] of the same compound?
Its viability, T/C is 123%.

And the viability, T/C [3]?
Its viability, T/C is 109%.

What about the viability, T/C [4] of the same compound?
Its viability, T/C is 104%.

And the viability, T/C [5]?
The viability, T/C was 97.8%.

And the viability, T/C [6]?
The viability, T/C was 94.8%.

What about the viability, T/C [7] of the same compound?
Its viability, T/C is 98.2%.

And the viability, T/C [8]?
Its viability, T/C is 135%.

What about the viability, T/C [9] of the same compound?
The viability, T/C was 129%.

And the viability, T/C [10]?
Its viability, T/C is 99.6%.

What about the viability, T/C [11] of the same compound?
The viability, T/C was 90.2%.

What about the viability, T/C [12] of the same compound?
The viability, T/C was 94.9%.

And the viability, T/C [13]?
Its viability, T/C is 116%.

What about the viability, T/C [14] of the same compound?
Its viability, T/C is 96.5%.

What about the viability, T/C [15] of the same compound?
Its viability, T/C is 126%.

And the viability, T/C [16]?
Its viability, T/C is 91.1%.

And the viability, T/C [17]?
The viability, T/C was 92%.

What about the viability, T/C [18] of the same compound?
The viability, T/C was 96.3%.

And the viability, T/C [19]?
The viability, T/C was 109%.

And the viability, T/C [20]?
The viability, T/C was 104%.

What about the viability, T/C [21] of the same compound?
Its viability, T/C is 110%.

What about the viability, T/C [22] of the same compound?
Its viability, T/C is 101%.

What about the viability, T/C [23] of the same compound?
The viability, T/C was 96.9%.

And the viability, T/C [24]?
The viability, T/C was 84.3%.

What about the viability, T/C [25] of the same compound?
Its viability, T/C is 107%.

What about the viability, T/C [26] of the same compound?
The viability, T/C was 118%.

And the viability, T/C [27]?
Its viability, T/C is 124%.

And the viability, T/C [28]?
Its viability, T/C is 110%.

What about the viability, T/C [29] of the same compound?
The viability, T/C was 119%.

What about the viability, T/C [30] of the same compound?
Its viability, T/C is 76.7%.

And the viability, T/C [31]?
The viability, T/C was 136%.

And the viability, T/C [32]?
The viability, T/C was 144%.

And the viability, T/C [33]?
Its viability, T/C is 145%.

And the viability, T/C [34]?
Its viability, T/C is 113%.

What about the viability, T/C [35] of the same compound?
Its viability, T/C is 108%.

And the viability, T/C [36]?
The viability, T/C was 88.2%.

`C[C@@H](NC(=O)c1ncnc(N)c1Cl)c1ncc(C(=O)Nc2cc(C(F)(F)F)c(Cl)cn2)s1` + C=CC(=O)N1CCN(c2nc(OCC3CCCN3C)nc3c(F)c(-c4nc(N)cc(C)c4C(F)(F)F)c(Cl)cc23)C(C)C1 was tested. Which IC50 (second compound 0.00316 µM) did it give?
The IC50 was over 10000 nM.

And the IC50 (second compound 0.01 µM)?
Its IC50 is over 10000 nM.

What about the IC50 (second compound 0.0316 µM) of the same compound?
The IC50 was over 10000 nM.

And the IC50 (second compound 0.1 µM)?
The IC50 was over 10000 nM.

What about the IC50 (second compound 0.316 µM) of the same compound?
The IC50 was over 10000 nM.

And the IC50 (second compound 1 µM)?
The IC50 was over 10000 nM.

And the viability, T/C (second compound 0.00316 µM, first compound 0.0316 µM)?
The viability, T/C was 99%.

And the viability, T/C (second compound 0.00316 µM, first compound 0.1 µM)?
The viability, T/C was 101%.

And the viability, T/C (second compound 0.00316 µM, first compound 0.316 µM)?
Its viability, T/C is 95.4%.

And the viability, T/C (second compound 0.00316 µM, first compound 1 µM)?
The viability, T/C was 88.4%.

What about the viability, T/C (second compound 0.00316 µM, first compound 3.16 µM) of the same compound?
Its viability, T/C is 69.5%.

And the viability, T/C (second compound 0.00316 µM, first compound 10 µM)?
The viability, T/C was 66.1%.

What about the viability, T/C (second compound 0.01 µM, first compound 0.0316 µM) of the same compound?
Its viability, T/C is 84.1%.

And the viability, T/C (second compound 0.01 µM, first compound 0.1 µM)?
The viability, T/C was 105%.

What about the viability, T/C (second compound 0.01 µM, first compound 0.316 µM) of the same compound?
The viability, T/C was 98%.

And the viability, T/C (second compound 0.01 µM, first compound 1 µM)?
The viability, T/C was 80.7%.

And the viability, T/C (second compound 0.01 µM, first compound 3.16 µM)?
The viability, T/C was 82.2%.

And the viability, T/C (second compound 0.01 µM, first compound 10 µM)?
The viability, T/C was 76.4%.

And the viability, T/C (second compound 0.0316 µM, first compound 0.0316 µM)?
Its viability, T/C is 84.9%.

What about the viability, T/C (second compound 0.0316 µM, first compound 0.1 µM) of the same compound?
The viability, T/C was 78.4%.

What about the viability, T/C (second compound 0.0316 µM, first compound 0.316 µM) of the same compound?
Its viability, T/C is 89.4%.

What about the viability, T/C (second compound 0.0316 µM, first compound 1 µM) of the same compound?
Its viability, T/C is 84.7%.

And the viability, T/C (second compound 0.0316 µM, first compound 3.16 µM)?
Its viability, T/C is 80.9%.

What about the viability, T/C (second compound 0.0316 µM, first compound 10 µM) of the same compound?
The viability, T/C was 57.6%.

And the viability, T/C (second compound 0.1 µM, first compound 0.0316 µM)?
The viability, T/C was 106%.

And the viability, T/C (second compound 0.1 µM, first compound 0.1 µM)?
The viability, T/C was 98.7%.

And the viability, T/C (second compound 0.1 µM, first compound 0.316 µM)?
Its viability, T/C is 99.9%.

And the viability, T/C (second compound 0.1 µM, first compound 1 µM)?
The viability, T/C was 92.3%.

What about the viability, T/C (second compound 0.1 µM, first compound 3.16 µM) of the same compound?
Its viability, T/C is 66%.

And the viability, T/C (second compound 0.1 µM, first compound 10 µM)?
The viability, T/C was 66.1%.

And the viability, T/C (second compound 0.316 µM, first compound 0.0316 µM)?
The viability, T/C was 92.5%.

And the viability, T/C (second compound 0.316 µM, first compound 0.1 µM)?
The viability, T/C was 118%.

What about the viability, T/C (second compound 0.316 µM, first compound 0.316 µM) of the same compound?
Its viability, T/C is 98.1%.

And the viability, T/C (second compound 0.316 µM, first compound 1 µM)?
Its viability, T/C is 81.6%.

And the viability, T/C (second compound 0.316 µM, first compound 3.16 µM)?
The viability, T/C was 78.2%.

And the viability, T/C (second compound 0.316 µM, first compound 10 µM)?
The viability, T/C was 92.3%.

And the viability, T/C (second compound 1 µM, first compound 0.0316 µM)?
Its viability, T/C is 104%.

What about the viability, T/C (second compound 1 µM, first compound 0.1 µM) of the same compound?
Its viability, T/C is 90.3%.

And the viability, T/C (second compound 1 µM, first compound 0.316 µM)?
Its viability, T/C is 122%.

What about the viability, T/C (second compound 1 µM, first compound 1 µM) of the same compound?
The viability, T/C was 76.5%.

What about the viability, T/C (second compound 1 µM, first compound 3.16 µM) of the same compound?
Its viability, T/C is 85%.

What about the viability, T/C (second compound 1 µM, first compound 10 µM) of the same compound?
The viability, T/C was 82.5%.

What does the source list for `CCc1c2c(nc3ccc(O)cc13)-c1cc3c(c(=O)n1C2)COC(=O)[C@]3(O)CC` + CCn1c(-c2cc(N3CCN(C)CC3)cnc2C(C)OC)c2c3cc(ccc31)-c1csc(n1)CC(NC(=O)C1CC1C)C(=O)N1CCCC(N1)C(=O)OCC(C)(C)C2?
IC50 (second compound 0.000949 µM): > 300 nM; IC50 (second compound 0.003 µM): > 300 nM; IC50 (second compound 0.00949 µM): > 300 nM; IC50 (second compound 0.03 µM): > 300 nM; IC50 (second compound 0.0949 µM): > 300 nM; IC50 (second compound 0.3 µM): > 300 nM; viability, T/C [1]: 130%; viability, T/C [2]: 112%; viability, T/C [3]: 153%; viability, T/C [4]: 124%; viability, T/C [5]: 86.5%; viability, T/C [6]: 81%; viability, T/C [7]: 109%; viability, T/C [8]: 114%; viability, T/C [9]: 151%; viability, T/C [10]: 107%; viability, T/C [11]: 119%; viability, T/C [12]: 66.2%; viability, T/C [13]: 107%; viability, T/C [14]: 112%; viability, T/C [15]: 136%; viability, T/C [16]: 105%; viability, T/C [17]: 112%; viability, T/C [18]: 77.2%; viability, T/C [19]: 116%; viability, T/C [20]: 102%; viability, T/C [21]: 139%; viability, T/C [22]: 122%; viability, T/C [23]: 118%; viability, T/C [24]: 65.4%; viability, T/C [25]: 115%; viability, T/C [26]: 122%; viability, T/C [27]: 162%; viability, T/C [28]: 131%; viability, T/C [29]: 116%; viability, T/C [30]: 69.4%; viability, T/C [31]: 131%; viability, T/C [32]: 131%; viability, T/C [33]: 161%; viability, T/C [34]: 104%; viability, T/C [35]: 109%; viability, T/C [36]: 77.9%
